Data from US8367116B2, “Buoyant polymer particles for delivery of therapeutic agents to the central nervous system” (Seacoast Neuroscience, Inc., priority 2002, dated 2013).

Key:
[1] = tested on: rat middle cerebral artery occlusion (MCAo) stroke model; assay: Rat MCAo stroke model, drugs delivered into the ventricle (CSF) by osmotic pump (FIG. 4, FIG. 5); type: in vivo, Sprague-Dawley rat; conditions: given within the CSF
Protocol: The parietal branch of the middle cerebral artery of the Sprague-Dawley rat is permanently occluded with a 10-0 nylon suture. The common carotid arteries are occluded temporarily for one hour. All drugs and vehicle are given beginning two hours post ischemia. Rats are sacrificed 24-hours later and the size of the infarct measured as a percent infarction of the total volume of the brain (mm^3) using imaging analysis. […], drugs are administered into the ventricle using an Alza osmotic pump (#20010) at a flow rate of 8 ul/hr over 24 hours.
Animals were treated with vehicle (n=23), Antioxidant (n=8), Prodrug (n=7) or an NMDA antagonist (n=7).

[2] = cited from earlier work
[3] = tested on: corticospinal tract axons; assay: Severed corticospinal tract model, inosine infused into the motor cortex, axon tracing; type: in vivo, rats; conditions: after 14 days of treatment
Excerpt: In one model, one side of the corticospinal tract in rats is severed as it courses through the brainstem. Inosine is then infused directly into the motor cortex of the brain, the site of origin for those axons descending into the non-injured side of the corticospinal tract. After 14 days of treatment, newly grown axon branches are traced by injecting a dye into the treated nerve cells in the cortex. Animals are then sacrificed and the spinal cord examined for histology evidence of new axon growth. […] These new axonal branches then continued to descend down the injured side of the corticospinal tract, effectively replacing severed axons with new ones. […] The number of collateral (new) axons ranged up to 2,500 per treated animal, compared to 28-170 axons seen in control animals.

[4] = tested on: rats with unilateral cortical infarcts (stroke); conditions: cited from earlier work
[5] = adult rats with unilateral cortical infarcts

Structure (SMILES): C[N+](C)(C)CCOP(=O)(O)OP(=O)([O-])OC[C@H]1O[C@@H](n2ccc(N)nc2=O)[C@H](O)[C@@H]1O [Citicholine, Cytidine-5′-diphosphocholine]
- dose response on infarct [1]: dose response effect
- citicholine dose taken up into brain tissue ([2]; administered i.v.): about 2%
- citicholine dose penetrating into brain tissue ([2]; administered orally): about 0.5%
- initial dose found in the brain ([2]; given through the blood stream): less than 1%

Structure (SMILES): OC[C@H]1O[C@@H](n2cnc3c(O)ncnc32)[C@H](O)[C@@H]1O [Inosine]
- collateral sprouting of axons from uninjured to injured side of corticospinal tract ([3]; almost all treated animals): extensive collateral sprouting of axons
- number of collateral (new) axons per treated animal ([3]; control animals 28-170 axons): up to 2,500
- GAP-43 stained newly growing axons on the denervated side ([4]; FIG. 7 B, E, after stroke): many
- axons crossing from undamaged side of brain to denervated side of spinal cord ([4]; FIG. 7 D, after stroke): causes many axons (red) to cross over
- new projections to denervated areas of midbrain and spinal cord [4, 5]: stimulated neurons on the undamaged side of the brain to extend new projections
- performance on behavioral measures [4, 5]: improved performance
- recovery of limb function ([4]; intravenous administration, same animal model): little or no significant recovery
